Measured values reported in publication PMC4139099 (Biochimica et biophysica acta, 2013).
Where no end group is shown, it is not given here.

What was measured:
pepsin = pepsin (Sus scrofa, UniProt P00791); settings: cited from earlier work
trypsin [1] = target: T1, trypsin (Sus scrofa, UniProt P00761); settings: cited from earlier work
chymotrypsin [2] = target: T2, chymotrypsin (Bos taurus, UniProt P00766); settings: cited from earlier work
mice = experiment: Toxicity and behavior in mice; assay type: in vivo; settings: i.p. 40 μg/g
trypsin [3] = target: T1, trypsin; experiment: Trypsin inhibitory assay; assay type: biochemical; settings: up to the concentration of 100 μg/mL
proteinase K = proteinase K (Parengyodontium album, UniProt P06873); experiment: Proteolytic and thermal stability against proteinase K; assay type: in vitro ADME; settings: proteinase K from Tritirachium album; 50 °C, up to 48 h
[4] = tested on: murine cerebrocortical neuron cells; experiment: Veratridine-induced neuronal Ca2+ influx; assay type: cell-based; settings: data not shown
chymotrypsin [5] = target: T2, chymotrypsin; experiment: Chymotrypsin inhibitory assay; assay type: biochemical; settings: up to the concentration of 100 μg/mL
[6] = Solubility in water or low pH buffers; settings: pure water or low pH buffers
chicks = experiment: Toxicity and behavior in chicks; assay type: in vivo; settings: i.c.v. 60 μg/g
thermolysin = target: T3, thermolysin (Bacillus thermoproteolyticus, UniProt P00800); experiment: Proteolytic and thermal stability against thermolysin; assay type: in vitro ADME; settings: thermolysin from Bacillus thermoproteolyticus Rokko; 65 °C, up to 12 h
T3 sequence (P00800 233-548): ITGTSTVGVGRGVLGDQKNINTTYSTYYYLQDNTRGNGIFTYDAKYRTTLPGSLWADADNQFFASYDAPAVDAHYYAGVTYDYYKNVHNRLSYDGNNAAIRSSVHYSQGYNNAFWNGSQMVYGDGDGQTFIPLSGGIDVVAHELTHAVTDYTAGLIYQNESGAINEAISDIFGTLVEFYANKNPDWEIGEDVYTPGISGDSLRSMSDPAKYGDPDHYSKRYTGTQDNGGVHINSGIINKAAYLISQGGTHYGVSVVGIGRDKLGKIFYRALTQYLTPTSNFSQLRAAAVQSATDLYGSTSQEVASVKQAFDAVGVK

T1 sequence (P00761 9-231): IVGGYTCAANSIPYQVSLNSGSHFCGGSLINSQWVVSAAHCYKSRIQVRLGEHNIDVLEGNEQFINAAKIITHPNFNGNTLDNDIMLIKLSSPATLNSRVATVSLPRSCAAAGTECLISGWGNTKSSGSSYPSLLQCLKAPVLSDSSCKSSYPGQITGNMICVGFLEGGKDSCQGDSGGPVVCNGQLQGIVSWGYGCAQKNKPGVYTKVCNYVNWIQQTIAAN
Chain of proteinase K (P06873 106-384): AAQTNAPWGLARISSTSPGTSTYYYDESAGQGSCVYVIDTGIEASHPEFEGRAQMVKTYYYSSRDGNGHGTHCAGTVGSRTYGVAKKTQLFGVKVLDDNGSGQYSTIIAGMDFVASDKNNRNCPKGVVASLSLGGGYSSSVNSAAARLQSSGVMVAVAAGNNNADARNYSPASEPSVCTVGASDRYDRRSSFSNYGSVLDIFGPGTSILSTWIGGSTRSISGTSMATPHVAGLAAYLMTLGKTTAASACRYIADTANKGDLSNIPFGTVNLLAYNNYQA
Chain of pepsin (P00791 60-385): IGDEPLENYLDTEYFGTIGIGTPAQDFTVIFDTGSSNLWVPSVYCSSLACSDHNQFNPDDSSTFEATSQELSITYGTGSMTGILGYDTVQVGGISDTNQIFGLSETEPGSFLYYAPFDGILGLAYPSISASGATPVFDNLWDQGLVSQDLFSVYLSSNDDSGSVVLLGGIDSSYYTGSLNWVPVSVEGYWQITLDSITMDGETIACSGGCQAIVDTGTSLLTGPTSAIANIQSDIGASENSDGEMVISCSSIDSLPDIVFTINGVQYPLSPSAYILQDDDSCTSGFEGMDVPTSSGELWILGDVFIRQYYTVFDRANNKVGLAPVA

Substance | stability towards pepsin (pepsin) | stability towards trypsin (trypsin [1]) | stability towards chymotrypsin (chymotrypsin [2]) | toxic effects or behavior changes in mice (mice) | effect in trypsin inhibitory assay (trypsin [3]) | proteolytic and thermal stability against proteinase K (proteinase K) | effect on neuronal Ca2+ influx [4] | effect in chymotrypsin inhibitory assay (chymotrypsin [5]) | solubility [6] | toxic effects or behavior changes in chicks (chicks) | stability to trypsin (trypsin [1]) | proteolytic and thermal stability against thermolysin (thermolysin)
kalata B1 (GLPVCGETCVGGTCNTPGCTCSWPVCTRN; not fully specified; ends and bridges not checked; UniProt P56254 89-117, looked up) | exhibits stability | exhibits stability | exhibits stability |  |  |  |  |  |  |  |  | 
asteropsin C [ASPC] |  |  |  | no toxic effects or behavior changes | no effects | exceptional proteolytic and thermal stability | no effect | no effects | virtually insoluble | no toxic effects or behavior changes |  | 
ω-conotoxin MVIIA [ziconotide] |  |  |  |  |  |  |  |  |  |  | unstable | 
asteropsin A [ASPA] |  |  |  | no toxic effects or behavior changes | no effects | exceptional proteolytic and thermal stability |  | no effects |  | no toxic effects or behavior changes |  | exceptional proteolytic and thermal stability
